Data taken from article PMC10233829 (ACS Omega, 2023).
In brackets after ≈: the same amount, converted by molar mass.

Legend:
S. aureus T5595 = test: MIC, twofold microdilution, clinical strain; type: cell-based, Staphylococcus aureus; details: Staphylococcus aureus, T5595, 18 h
[1] = tested on: S. epidermidis ATCC 12228; test: MIC, twofold microdilution, standard strain; type: cell-based; details: Staphylococcus epidermidis, ATCC12228, 18 h
S. pasteuri KR 4358 = test: MIC, twofold microdilution, clinical strain; type: cell-based; details: Staphylococcus pasteuri, KR4358, 18 h
E. coli 951 = test: MIC, twofold microdilution, clinical strain; type: cell-based; details: Escherichia coli, 18 h
[2] = tested on: S. epidermidis ATCC 35984; test: MIC, twofold microdilution, standard strain; type: cell-based; details: Staphylococcus epidermidis, ATCC35984, 18 h
S. aureus NCTC 4163 = test: MIC, twofold microdilution, standard strain; type: cell-based; details: Staphylococcus aureus, NCTC4163, 18 h
P. aeruginosa 37 = test: MIC, twofold microdilution, clinical strain; type: cell-based; details: Pseudomonas aeruginosa, 18 h
[3] = tested on: clinical bacterial strains; test: MIC, clinical isolates as groups of strains; type: cell-based; details: S. aureus 180 and 5595
K. pneumoniae 510 = test: MIC, twofold microdilution, clinical strain; type: cell-based, Klebsiella pneumoniae
S. aureus T5591 = test: MIC, twofold microdilution, clinical strain; type: cell-based, Staphylococcus aureus; details: Staphylococcus aureus, T5591, 18 h
E. coli 600 = test: MIC, twofold microdilution, clinical strain; type: cell-based, Escherichia coli; details: Escherichia coli, 600, 18 h
E. cloacae 8 = test: MIC, twofold microdilution, clinical strain; type: cell-based, Escherichia cloacae; details: Enterobacter cloacae, 8; clinical strain, 18 h
K. pneumoniae 28 = test: MIC, twofold microdilution, clinical strain; type: cell-based; details: Klebsiella pneumoniae, 18 h
S. aureus 5595 = test: MIC, twofold microdilution, clinical strain; type: cell-based; details: Staphylococcus aureus, 18 h
S. aureus ATCC 29213 = test: MIC, twofold microdilution, standard strain; type: cell-based; details: Staphylococcus aureus, ATCC29213, 18 h
P. aeruginosa 659 = test: MIC, twofold microdilution, clinical strain; type: cell-based; details: Pseudomonas aeruginosa, 18 h
S. aureus ATCC 6538 = test: MIC, twofold microdilution, standard strain; type: cell-based, Staphylococcus aureus
S. epidermidis KR4243/1 = test: MIC, twofold microdilution, clinical strain; type: cell-based; details: Staphylococcus epidermidis, 18 h
E. coli ATCC 25922 = test: MIC, twofold microdilution, standard strain; type: cell-based, Escherichia coli
[4] = MTT assay, cytotoxic activity; type: cell-based; details: human, HaCaT cells (immortal keratinocytes); MTT, 72 h, normal cell line; read-out: IC50 HaCaT
In short: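 Viability was calculated as A/B × 100%, with A the absorbance of treated samples and B that of untreated controls, from MTT reduction. Cells were cultured in a humidified 37 °C/5% CO2 incubator.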

P. aeruginosa ATCC 15442 = test: MIC, twofold microdilution, standard strain; type: cell-based, Pseudomonas aeruginosa
S. aureus 180 = test: MIC, twofold microdilution, clinical strain; type: cell-based; details: Staphylococcus aureus, 18 h
S. epidermidis 4341 = test: MIC, twofold microdilution, clinical strain; type: cell-based; details: Staphylococcus epidermidis, 18 h
S. aureus ATCC 25923 = test: MIC, twofold microdilution, standard strain; type: cell-based; details: Staphylococcus aureus, ATCC25923, 18 h
M. tuberculosis H37Rv = test: Tuberculostatic activity, Microplate Alamar Blue Assay (MIC); type: cell-based, Mycobacterium tuberculosis; details: Mycobacterium tuberculosis, H37RV; MABA; read-out: MIC M. tuberculosis H37Rv
S. epidermidis 5253 = test: MIC, twofold microdilution, clinical strain; type: cell-based, Staphylococcus epidermidis; details: Staphylococcus epidermidis, 5253, 18 h
[5] = tested on: M. tuberculosis Spec. 192; test: Tuberculostatic activity, Microplate Alamar Blue Assay (MIC); type: cell-based; details: Mycobacterium tuberculosis, MABA, read-out: MIC M. tuberculosis Spec. 192 (sensitive to tuberculostatics)
E. coli 520 = test: MIC, twofold microdilution, clinical strain; type: cell-based; details: Escherichia coli, 18 h
PC3 cells = test: MTT assay, cytotoxic activity; type: cell-based, human; details: Homo sapiens, PC-3, 72 h, MTT, 72 h
In short: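 Cytotoxicity readout: relative MTT level (%), i.e. absorbance of compound-treated PC3 cells divided by that of untreated controls, ×100. Cultures were kept in a humidified 37 °C, 5% CO2 incubator.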

O=C(O)c1cn(C2CC2)c2cc(N3CCN(C(=O)CCCBr)CC3)c(F)cc2c1=O [Compound 10, 7-[4-(4-Bromobutyryl)-piperazin-1-yl]-1-cyclopropyl-6-fluoro-4-oxo-1,4-dihydro-quinoline-3-carboxylic Acid]
MIC (S. aureus T5595): 0.8 µg/mL (≈ 1.67 µM) | MIC [1]: 0.2 µg/mL (≈ 0.416 µM) | MIC (S. pasteuri KR 4358): 0.2 µg/mL (≈ 0.416 µM) | MIC (E. coli 951): 0.4 µg/mL (≈ 0.833 µM) | MIC [2]: 0.1 µg/mL (≈ 0.208 µM) | MIC (S. aureus NCTC 4163): 0.2 µg/mL (≈ 0.416 µM) | MIC (P. aeruginosa 37): 0.8 µg/mL (≈ 1.67 µM) | share of CP inhibitory activity [3]: 62.5% | share of the reference (CP) activity (K. pneumoniae 510; Klebsiella pneumoniae rods): 62.5% | MIC (K. pneumoniae 510; Klebsiella pneumoniae, 510, clinical strain, 18 h): 6.4 µg/mL (≈ 13.3 µM) | MIC (S. aureus T5591): 0.8 µg/mL (≈ 1.67 µM) | MIC (E. coli 600): 0.05 µg/mL (≈ 0.104 µM) | MIC (E. cloacae 8): 0.05 µg/mL (≈ 0.104 µM) | MIC (K. pneumoniae 28): > 25.6 µg/mL | MIC (S. aureus 5595): 0.8 µg/mL (≈ 1.67 µM) | MIC (S. aureus ATCC 29213): 0.4 µg/mL (≈ 0.833 µM) | MIC (P. aeruginosa 659): 0.8 µg/mL (≈ 1.67 µM) | MIC (S. aureus ATCC 6538; Staphylococcus aureus, ATCC6538, standard strain, 18 h): 0.2 µg/mL (≈ 0.416 µM) | MIC used in biofilm eradication assay, S. aureus 6538 (S. aureus ATCC 6538; Table S1, MIC): 0.200 µg/mL (≈ 0.416 µM) | MIC (S. epidermidis KR4243/1): 0.4 µg/mL (≈ 0.833 µM) | MIC (E. coli ATCC 25922; Escherichia coli, ATCC25922, standard strain, 18 h): 0.025 µg/mL (≈ 0.052 µM) | MIC used in biofilm eradication assay, E. coli ATCC 25922 (E. coli ATCC 25922; Table S1, MIC): 0.025 µg/mL (≈ 0.052 µM) | IC50 at 72 h [4]: 89.1 ± 2.1 µM | MIC (P. aeruginosa ATCC 15442; Pseudomonas aeruginosa, ATCC15442, standard strain, 18 h): 0.1 µg/mL (≈ 0.208 µM) | MIC used in biofilm eradication assay, P. aeruginosa 15442 (P. aeruginosa ATCC 15442; Table S1, MIC): 0.100 µg/mL (≈ 0.208 µM) | MIC (S. aureus 180): 0.8 µg/mL (≈ 1.67 µM) | MIC (S. epidermidis 4341): 25.6 µg/mL (≈ 53.3 µM) | MIC (S. aureus ATCC 25923): 0.4 µg/mL (≈ 0.833 µM) | MIC (M. tuberculosis H37Rv): 1 µg/mL (≈ 2.08 µM) | MIC (S. epidermidis 5253): > 25.6 µg/mL | MIC [5]: 0.5 µg/mL (≈ 1.04 µM) | MIC (E. coli 520): 0.1 µg/mL (≈ 0.208 µM) | IC50 (PC3 cells): 84.1 ± 7.3 µM
